Assay results taken from patent US4578382A, “4-acylamino-1-azaadamantanes, and compositions for use thereof in medicine” (Etablissements Nativelle S.A., priority 1981, dated 1986).
Read-outs that look alike come from different tables or passages of the source.

What was measured:
[1] = Acute toxicity in the mouse (LD 50, Litchfield and Wilcoxon); settings: in vivo
Experimental: The acute toxicity of the derivatives of the invention were studied by intraperitoneal administration (I.P.) on the mouse (10 animals, 5 males and 5 females per dose) and calculation of the lethal dose 50 (LD 50) in accordance with the method of Litchfield and Wilcoxon (J. Pharmacol. 96, 99-113 (1949)).
In certain cases (derivatives of Examples 4, 6, 9), the LD 50 was also calculated after oral administration (P.O.) of the derivatives.

anesthetized dog [2] = test: Hemodynamic (cardiovascular) tolerance in the anesthetized dog; format: in vivo; settings: i.v.; for Cardiac Flow, percentage of variation / Cardiac Frequency, percentage of variation / Systolic Arterial Pressure, percentage of variation / Total Peripheral Resistances, percentage of variation / dp/dt/p Left Ventricular, percentage of variation: vs control period
Experimental: The hemodynamic tolerance of the derivatives of the invention was studied on dogs anesthesized with sodium pentobarbital. Endocavitary pressures were measured by means of catheters connected to Statham sensors while external recording of the electrocardiogram (E.C.G.) provided the measurement of cardiac frequency. Cardiac flow was measured by means of an electromagnetic sensor placed on the beginning of the aorta. The total peripheral resistances R were calculated from the value of the average aortic pressure (P) and the cardiac flow (Q) in accordance with the formula R=P/Q.
After measurement of the parameters during a control period, the derivatives were injected intravenously in cumulative doses (30 minute interval between doses). The variations of the parameters in relation to the control period were measured within 20 and 30 minutes after each injection and are expressed as a percentage of variation in relation to the control.
Table 2 summarizes the variations in hemodynamic parameters observed between the first and last injections.

[3] = system: ventricular arrhythmias with adrenalin; test: Test with adrenalin after experimental infarct; format: in vivo, dog
Text: (§1) Narcisse et al, Ann. Pharma. Fr., 37, 325-330 (1979), in the rat by the aconitine intoxication test of S. Witchitz et al, Coeur Med. Int., X(2), 281-286, (1971) and in the dog by the Harris test described in Circulation, 1, 1318, (1950) and by the test with adrenalin after experimental infarct of I. J. Steffe et al, J. Pharmacol. Exp. Ther., 214, 50-57 (1980).
2 to 5 days after an experimental infarct, the effects of discontinuous injections (in intravenous bolus of […] of basic adrenalin) of adrenalin were observed on the electrocardioagram of the conscious dog.
During a first phase (control) of the experiment, three successive injections of adrenalin were given and, in the 2 minutes following each injection, the frequency of the ventricular extrasystoles was measured. In this manner, by increasing the dose of adrenalin as necessary, it was possible to determine the dose which caused the appearance of ventricular extrasystoles at a higher frequency than or equal to half the total number of ventricular systoles.
After injection of the derivative to be tested, the same dose of adrenalin was reinjected after 5 minutes, then 30 minutes, 60 minutes, 90 minutes, etc., and its effects were compared to those observed during the control period.
The results therein are expressed as a percentage of extrasystoles (on the total number of systoles) measured during the 2 minutes following the injection of adrenalin before and after the administration of the derivative to be tested.

anesthetized dog [4] = test: Electrophysiological studies on the anesthetized dog; format: in vivo; settings: i.v., doses 0.1 to 1.4 mg/kg; 1 evaluation
Experimental: This study was carried out on dogs anesthetized with pentobarbital, with a closed thorax, by means of bipolar catheter-electrodes introduced into the cardiac cavities by transcutaneous venous and arterial means. The surface electrocardiogram (standard derivation D2) is recorded permanently.
By means of a programmable JANSEN (R) stimulator, the following parameters may be measured:
spontaneous cardiac frequency (FC);
sinus recuperation time (SRTc) after auricular stimulation imposed at 160 b/mn for 1 mn;
intracardiac conduction times (auriculohisien at a constant frequency, His-Purkinje, intraventricular);
the effective and functional refractory periods measured at an imposed constant frequency, with the extrastimulus method.
During the electrophysiological study, the derivatives were injected intravenously for 2 minutes for each dose and at 30 minute intervals between each dose. The doses are expressed as a cumulative value and as a base term.
The measurement of the various parameters was carried out before the injection of the first dose (control period) and from 10 to 28 minutes after the injection of each dose of the substance. The results are expressed as a percentage of variation in relation to the control period.

[5] = system: ventricular arrhythmias and death induced by the aconitine; test: Aconitine intoxication test in the anesthetized rat; format: in vivo; settings: i.v., vs untreated control
Text: as §1
The anesthetized rat was intoxicated with an intravenous perfusion of aconitine while its electrocardiogram (ECG) was permanently recorded. During the perfusion at constant rate, the time necessary for the appearance of ventricular arrhythmias, successive extrasystoles (ESV), then stable ventricular tachycardium (TV) and the time within which the animal died were measured.
The animals were divided into a control group (untreated) and treated groups (different doses). The results are expressed as a percentage of prolonging the time of appearance of the arrhythmias and of death of the treated groups in reaction to the control group.
The results obtained are shown in Table 4 below and express the percentage of prolongation of the time of appearance of ventricular arrhythmias (ventricular extrasystoles and ventricular tachycardiums), and of the death, induced by the aconitine after an intravenous injection (I.V.) of several derivatives of the invention, in relation to a group of untreated control animals.

[6] = system: anoxic ventricular fibrillation; test: Lawson test (cardiac antifibrillatory power, chloroform); format: in vivo; settings: ip; mouse, intraperitoneal, 10 minutes before chloroform
Experimental: The Lawson test is a test for the study of the cardiac antifibrillatory power of the derivatives. The mice (20 per group) received an intraperitoneal injection of the derivative 10 minutes before being placed in a chloroform-saturated atmosphere. Upon respiratory arrest, the thorax was opened (5 to 10 seconds) and whether or not the heart was in ventricular fibrillation was checked. The efficacy dose 50 (ED 50) of the derivative being studied is the dose which protects half the mice against anoxic ventricular fibrillation.

[7] = as above; settings: in vivo, ip; mouse, intraperitoneal; read-out: Maximum Dose Tolerated
[8] = ip, intraperitoneal, read-out: LD 50 I.P.
[9] = cumulative doses 0.1 to 1 mg/kg
[10] = 1.3 mg/kg, control period 85% of ESV
[11] = 10 mg/kg, control period 40% of ESV

SMILES: CC1(NC(=O)CC(c2ccccc2)c2ccccc2)C2CC3CC1CN(C2)C3(C)C (single isomer, unassigned) [Example 6, N-(3,3-diphenylpropionyl)-4-amino-4,8,8-trimethyl-1-azaadamantane]
- LD50 [1, 8]: 51 mg/kg
- LD50 ([1]; oral, read-out: LD 50 P.O.): 380 mg/kg
- Cardiac frequency, maximum variation (anesthetized dog [2]; anesthetized dog): +10%
- Cardiac Flow, percentage of variation (anesthetized dog [2]; [9]): -3 to -18%
- Cardiac Frequency, percentage of variation (anesthetized dog [2]; [9]): -3 to +10%
- Systolic Arterial Pressure, percentage of variation (anesthetized dog [2]; [9]): -8 to -16%
- Total Peripheral Resistances, percentage of variation (anesthetized dog [2]; [9]): 0%
- dp/dt/p Left Ventricular, percentage of variation (anesthetized dog [2]; [9]): -6 to -13%
- ESV Percentage at 5 min [3, 10]: 29%
- ESV Percentage at 30 min [3, 10]: 17%
- ESV Percentage at 60 min [3, 10]: 17%
- F.C. (cardiac frequency), variation (anesthetized dog [4]): 0 to +32%
- HV (time of His-Purkinje conduction), variation (anesthetized dog [4]): 0 to +92%
- PREA (effective auricular refractory period), variation (anesthetized dog [4]): +18 to +50%
- PREV (effective ventricular refractory period), variation (anesthetized dog [4]): +10 to +20%
- QRS (time of intraventricular conduction), variation (anesthetized dog [4]): 0 to +50%
- St-H (time of auriculohisien conduction), variation (anesthetized dog [4]): 0 to +25%
- Prolongation of time of appearance of ventricular extrasystoles (ESV) ([5]; 1 mg/kg): +52%
- Prolongation of time of appearance of ventricular tachycardium (TV) ([5]; 1 mg/kg): +93%
- Prolongation of time to death ([5]; 1 mg/kg): +69%
- Prolongation of time of appearance of ventricular extrasystoles (ESV) ([5]; 2 mg/kg): +67%
- Prolongation of time of appearance of ventricular tachycardium (TV) ([5]; 2 mg/kg): +139%
- Prolongation of time to death ([5]; 2 mg/kg): +97%

SMILES: CC1(NC(=O)c2ccccc2)C2CC3CC1CN(C2)C3(C)C (centres unmarked) [Example 7, 4-N-benzoylamino-4,8,8-trimethyl-1-azaadamantane]
- LD50 [1, 8]: 230 mg/kg
- ED50 [6]: 76 mg/kg
- Prolongation of time of appearance of ventricular extrasystoles (ESV) ([5]; 5 mg/kg): +59%
- Prolongation of time of appearance of ventricular tachycardium (TV) ([5]; 5 mg/kg): +53%
- Prolongation of time to death ([5]; 5 mg/kg): +29%
- Prolongation of time of appearance of ventricular extrasystoles (ESV) ([5]; 10 mg/kg): +35%
- Prolongation of time of appearance of ventricular tachycardium (TV) ([5]; 10 mg/kg): +35%
- Prolongation of time to death ([5]; 10 mg/kg): +45%
- Prolongation of time of appearance of ventricular extrasystoles (ESV) ([5]; 20 mg/kg): +111%
- Prolongation of time of appearance of ventricular tachycardium (TV) ([5]; 20 mg/kg): +105%
- Prolongation of time to death ([5]; 20 mg/kg): +89%
- MTD [7]: 150 mg/kg

SMILES: COc1ccc(CCC(=O)NC2(C)C3CC4CC2CN(C3)C4(C)C)cc1 (centres unmarked) [Example 5, N-[3-(p-methoxy-phenyl)propionyl]-4-amino-4,8,8-trimethyl-1-azaadamantane]
- LD50 [1, 8]: 250 mg/kg
- ED50 [6]: 61 mg/kg
- Cardiac frequency, in words (anesthetized dog [2]; anesthetized dog): the frequency does not change
- Cardiac Flow, percentage of variation (anesthetized dog [2]; cumulative doses 1 to 10 mg/kg): +4 to -8%
- Cardiac Frequency, percentage of variation (anesthetized dog [2]; cumulative doses 1 to 10 mg/kg): 0%
- Systolic Arterial Pressure, percentage of variation (anesthetized dog [2]; cumulative doses 1 to 10 mg/kg): 0 to +3%
- Total Peripheral Resistances, percentage of variation (anesthetized dog [2]; cumulative doses 1 to 10 mg/kg): -6 to +11%
- dp/dt/p Left Ventricular, percentage of variation (anesthetized dog [2]; cumulative doses 1 to 10 mg/kg): +2 to -15%
- ESV Percentage at 5 min [3, 11]: 9%
- ESV Percentage at 30 min [3, 11]: 14%
- ESV Percentage at 60 min [3, 11]: 16%
- Prolongation of time of appearance of ventricular extrasystoles (ESV) ([5]; 5 mg/kg): +41%
- Prolongation of time of appearance of ventricular tachycardium (TV) ([5]; 5 mg/kg): +20%
- Prolongation of time to death ([5]; 5 mg/kg): +21%
- Prolongation of time of appearance of ventricular extrasystoles (ESV) ([5]; 10 mg/kg): +51%
- Prolongation of time of appearance of ventricular tachycardium (TV) ([5]; 10 mg/kg): +48%
- Prolongation of time to death ([5]; 10 mg/kg): +36%
- Prolongation of time of appearance of ventricular extrasystoles (ESV) ([5]; 20 mg/kg): +65%
- Prolongation of time of appearance of ventricular tachycardium (TV) ([5]; 20 mg/kg): +54%
- Prolongation of time to death ([5]; 20 mg/kg): +50%
- MTD [7]: 200 mg/kg
